Tests used:
Adenosine receptor A2a = Adenosine receptor A2a (Homo sapiens, UniProt P29274); assay: Displacement of [3H]ZM-241385 from human adenosine A2a receptor expressed in HEK cells; assay type: cell-based, HEK293
Adenosine receptor A1 = target: T1, Adenosine receptor A1 (Homo sapiens, UniProt P30542); assay: Displacement of [3H]CPX from human adenosine A1 receptor expressed in CHO cells
T1 sequence (P30542 whole entry): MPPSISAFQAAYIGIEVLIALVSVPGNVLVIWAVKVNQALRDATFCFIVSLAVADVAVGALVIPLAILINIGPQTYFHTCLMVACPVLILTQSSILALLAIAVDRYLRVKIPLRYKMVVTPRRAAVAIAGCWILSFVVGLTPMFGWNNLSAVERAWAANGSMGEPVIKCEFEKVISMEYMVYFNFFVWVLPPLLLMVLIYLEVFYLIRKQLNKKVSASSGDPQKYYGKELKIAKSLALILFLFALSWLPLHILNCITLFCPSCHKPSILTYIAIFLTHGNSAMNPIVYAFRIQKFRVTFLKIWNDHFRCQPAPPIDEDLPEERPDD

Adenosine receptor A2b = target: T2, Adenosine receptor A2b (Homo sapiens, UniProt P29275); assay: Displacement of [3H]ZM241385 from human adenosine A2b receptor expressed in HEK cells; assay type: cell-based, HEK293
T2 sequence (P29275 whole entry): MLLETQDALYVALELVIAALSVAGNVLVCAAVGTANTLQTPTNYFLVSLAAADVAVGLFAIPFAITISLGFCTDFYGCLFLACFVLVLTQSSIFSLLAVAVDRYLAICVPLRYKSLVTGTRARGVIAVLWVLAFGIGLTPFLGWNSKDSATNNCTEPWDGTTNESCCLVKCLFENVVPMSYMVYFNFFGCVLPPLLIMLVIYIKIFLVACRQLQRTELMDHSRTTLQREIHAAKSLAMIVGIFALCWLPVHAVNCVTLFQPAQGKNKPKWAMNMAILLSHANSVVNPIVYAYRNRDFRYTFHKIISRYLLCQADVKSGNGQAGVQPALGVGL

[1] = target: Adenosine A2 receptor (Homo sapiens) (UniProt P29275+P29274); assay: Selectivity for human adenosine A2b receptor over adenosine A2a receptor; assay type: protein assay
[2] = target: Adenosine receptors; A1 & A2b (Homo sapiens) (UniProt P30542+P29275); assay: Selectivity for human adenosine A2b receptor over adenosine A1 receptor; assay type: protein assay

Chain of Adenosine receptor A2a (P29274 whole entry): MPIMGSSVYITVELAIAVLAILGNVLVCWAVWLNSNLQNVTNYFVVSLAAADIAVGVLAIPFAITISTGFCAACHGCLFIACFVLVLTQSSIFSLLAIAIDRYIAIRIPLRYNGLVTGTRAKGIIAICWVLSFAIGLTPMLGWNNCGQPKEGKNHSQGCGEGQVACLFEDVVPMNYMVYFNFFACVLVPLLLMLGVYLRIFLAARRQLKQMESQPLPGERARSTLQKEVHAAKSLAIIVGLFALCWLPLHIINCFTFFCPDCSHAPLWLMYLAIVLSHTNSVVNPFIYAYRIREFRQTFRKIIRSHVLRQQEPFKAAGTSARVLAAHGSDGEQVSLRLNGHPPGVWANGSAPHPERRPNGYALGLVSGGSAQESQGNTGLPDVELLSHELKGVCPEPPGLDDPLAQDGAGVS

Row | Ki (Adenosine receptor A2a) [nM] | Ki (Adenosine receptor A1) [nM] | Ki (Adenosine receptor A2b) [nM] | Ratio Ki [1] | Ratio Ki [2] | SMILES
1 | 70 | 190 | 29 | – | – | CCCn1c(=O)c2[nH]c(-c3cnn(Cc4cc(Cl)ccc4Cl)c3)nc2n(CCC)c1=O
2 | – | – | > 6600 | – | – | CCCn1c(=O)c2[nH]c(-c3cnn(-c4ccc(Cl)cc4)c3C(F)(F)F)nc2n(CCC)c1=O
3 | 570 | 17 | 74 | 7 | 0.2 | CCCn1c(=O)c2nc(-c3cnn(CCc4ccccc4)c3)[nH]c2n(CCC)c1=O
4 | – | – | – | 1 | 1 | CCCCn1c(=O)c2nc(-c3cnn(Cc4ccccc4)c3)[nH]c2n(CCCC)c1=O
5 | – | – | – | 2 | 6 | CCCn1c(=O)c2nc(-c3cnn(Cc4cc(Cl)ccc4Cl)c3)[nH]c2n(CCC)c1=O
6 | – | – | 2100 | – | – | CCCn1c(=O)c2nc(-c3cc(C)nn3CC)[nH]c2n(CCC)c1=O
7 | – | – | > 5800 | – | – | CCCn1c(=O)c2nc(-n3cccn3)[nH]c2n(CCC)c1=O
8 | – | – | – | 2 | 2 | CCCn1c(=O)c2nc(-c3cnn(-c4ccccc4)c3)[nH]c2n(CCC)c1=O
9 | – | – | 3700 | – | – | CCCn1c(=O)c2[nH]c(-c3cc(C)nn3C)nc2n(CCC)c1=O
10 | – | – | 350 | – | – | CCCn1c(=O)c2[nH]c(-c3cnn(Cc4cc(C(F)(F)F)cc(C(F)(F)F)c4)c3)nc2n(CCC)c1=O
11 | 140 | 59 | 37 | – | – | CCCn1c(=O)c2[nH]c(-c3cnn(Cc4ccccc4OC)c3)nc2n(CCC)c1=O
12 | 890 | 1400 | 980 | – | – | CCCCn1c(=O)c2[nH]c(-c3cnn(Cc4ccccc4)c3)nc2n(CCCC)c1=O
13 | – | – | > 4100 | – | – | CCCn1c(=O)c2nc(-c3cnn(-c4ccccc4)c3C)[nH]c2n(CCC)c1=O
14 | – | – | > 5800 | – | – | CCCn1c(=O)c2c(nc(-n3cc(I)cn3)n2Cc2ccccc2)n(CCC)c1=O
15 | 80 | 38 | 40 | – | – | CCCn1c(=O)c2[nH]c(-c3cnn(Cc4ccc(C)cc4)c3)nc2n(CCC)c1=O
16 | – | – | > 6600 | – | – | CCCc1c(-c2nc3c([nH]2)c(=O)n(CCC)c(=O)n3CCC)cnn1-c1ccccc1
17 | 120 | 580 | 19 | – | – | CCn1c(=O)c2[nH]c(-c3cnn(Cc4ccccc4)c3)nc2n(CC)c1=O
18 | 66 | 48 | 36 | – | – | CCCn1c(=O)c2[nH]c(-c3cnn(Cc4cccc(C)c4)c3)nc2n(CCC)c1=O
19 | – | – | 1100 | – | – | CCCn1c(=O)c2nc(-c3ccnn3-c3ccccc3)[nH]c2n(CCC)c1=O
20 | 230 | 44 | 37 | – | – | CCCn1c(=O)c2[nH]c(-c3cnn(Cc4ccccc4C(F)(F)F)c3)nc2n(CCC)c1=O
21 | 61 | 70 | 37 | – | – | CCCn1c(=O)c2[nH]c(-c3cnn(Cc4ccc(OC)cc4)c3)nc2n(CCC)c1=O
22 | – | – | – | 6 | 30 | CCn1c(=O)c2nc(-c3cnn(Cc4ccccc4)c3)[nH]c2n(CC)c1=O
23 | 51 | 22 | 33 | – | – | CCCn1c(=O)c2[nH]c(-c3cnn(Cc4ccccc4C)c3)nc2n(CCC)c1=O
24 | – | – | – | 2 | 0.6 | CCCn1c(=O)c2nc(-c3cnn(Cc4ccccc4C)c3)[nH]c2n(CCC)c1=O
25 | – | – | > 5800 | – | – | CCCn1c(=O)c2c(nc(-n3cccn3)n2Cc2ccccc2)n(CCC)c1=O
26 | – | – | – | 2 | 0.6 | CCCn1c(=O)c2nc(-c3cnn(Cc4ccccc4F)c3)[nH]c2n(CCC)c1=O
27 | – | 42000 | – | – | – | CCCn1c(=O)[nH]c(=O)c2[nH]cnc21 [ENPROFYLLINE]
28 | 1100 | 620 | 1250 | – | – | CC(C)Cn1c(=O)c2[nH]c(-c3cnn(Cc4ccccc4)c3)nc2n(CC(C)C)c1=O

Row | Ki (Adenosine receptor A2a) [nM] | Ki (Adenosine receptor A1) [nM] | Ki (Adenosine receptor A2b) [nM] | Ratio Ki [1] | Ratio Ki [2] | SMILES
29 | – | – | – | 1 | 0.5 | CC(C)Cn1c(=O)c2nc(-c3cnn(Cc4ccccc4)c3)[nH]c2n(CC(C)C)c1=O
30 | – | – | – | 5 | 1 | CCCn1c(=O)c2nc(-c3cnn(Cc4ccc(F)cc4)c3)[nH]c2n(CCC)c1=O
31 | – | – | – | 6 | 1 | CCCn1c(=O)c2nc(-c3cnn(Cc4ccccc4C(F)(F)F)c3)[nH]c2n(CCC)c1=O
32 | – | – | 240 | – | – | CCCn1c(=O)c2[nH]c(-c3cnn(Cc4cccc(F)c4F)c3)nc2n(CCC)c1=O
33 | – | – | – | 14 | 10 | CC(C)Cn1c(=O)c2nc(-c3cnn(Cc4cccc(C(F)(F)F)c4)c3)[nH]c2n(CC(C)C)c1=O
34 | – | – | – | 2 | 1 | CCCn1c(=O)c2nc(-c3cnn(Cc4ccc(C)cc4)c3)[nH]c2n(CCC)c1=O
35 | – | – | 410 | – | – | CCCn1c(=O)c2nc(-c3cnn(Cc4ccc(OC)c(C(F)(F)F)c4)c3)[nH]c2n(CCC)c1=O
36 | 1300 | 830 | 990 | – | – | CC(C)Cn1c(=O)c2[nH]c(-c3cnn(Cc4cccc(F)c4)c3)nc2n(CC(C)C)c1=O
37 | – | – | – | 1 | 1 | CC(C)Cn1c(=O)c2nc(-c3cnn(Cc4cccc(F)c4)c3)[nH]c2n(CC(C)C)c1=O
38 | – | – | 360 | – | – | CCCn1c(=O)c2[nH]c(-c3cnn(Cc4cc(C(F)(F)F)cc(Cl)c4F)c3)nc2n(CCC)c1=O
39 | – | – | 700 | – | – | CCCn1c(=O)c2nc(-c3cnn(Cc4ccc(F)cc4F)c3)[nH]c2n(CCC)c1=O
40 | 60 | 19 | 28 | – | – | CCCn1c(=O)c2[nH]c(-c3cnn(Cc4ccccc4F)c3)nc2n(CCC)c1=O
41 | – | – | – | 2 | 1 | CCCn1c(=O)c2nc(-c3cnn(Cc4cccc(C)c4)c3)[nH]c2n(CCC)c1=O
42 | 120 | 23 | 22 | – | – | CCCn1c(=O)c2[nH]c(-c3cnn(Cc4ccc(F)cc4)c3)nc2n(CCC)c1=O
43 | – | – | – | 4 | 2 | CCCn1c(=O)c2nc(-c3cnn(Cc4ccccc4OC)c3)[nH]c2n(CCC)c1=O
44 | – | – | > 6600 | – | – | CCCn1c(=O)c2nc(-c3cnn(-c4ccccc4)c3C(F)(F)F)[nH]c2n(CCC)c1=O
45 | – | – | 640 | – | – | CCCn1c(=O)c2[nH]c(-c3cnn(Cc4ccc(F)c(C(F)(F)F)c4)c3)nc2n(CCC)c1=O
46 | 560 | 770 | 310 | – | – | CCCn1c(=O)c2[nH]c(-c3cnn(-c4ccccc4)c3)nc2n(CCC)c1=O
47 | – | – | 4800 | – | – | CCCn1c(=O)c2[nH]c(-c3cnn(Cc4cc(F)ccc4Cl)c3)nc2n(CCC)c1=O
48 | – | – | – | 10 | 9 | CCCn1c(=O)c2nc(-c3cnn(Cc4cccc(C)c4F)c3)[nH]c2n(CCC)c1=O
49 | – | – | 390 | – | – | CCCn1c(=O)c2nc(-c3cnn(Cc4c(F)cccc4F)c3)[nH]c2n(CCC)c1=O
50 | 49 | 59 | 20 | – | 3 | CCCn1c(=O)c2nc(-c3cnn(Cc4ccccc4Cl)c3)[nH]c2n(CCC)c1=O
51 | 460 | 390 | 44 | – | – | CCCn1c(=O)c2[nH]c(-c3cnn(Cc4cccc(C)c4F)c3)nc2n(CCC)c1=O
52 | – | – | 200 | – | – | CCCn1c(=O)c2nc(-c3cnn(Cc4ccc(Cl)c(C(F)(F)F)c4)c3)[nH]c2n(CCC)c1=O
53 | – | – | 650 | – | – | CCCn1c(=O)c2nc(-c3cnn(Cc4c(F)cc(F)cc4F)c3)[nH]c2n(CCC)c1=O
54 | 4300 | 3100 | 300 | – | – | CC(C)Cn1c(=O)c2[nH]c(-c3cnn(Cc4cccc(C(F)(F)F)c4)c3)nc2n(CC(C)C)c1=O
55 | – | – | – | 1 | 2 | CCCn1c(=O)c2nc(-c3cnn(Cc4ccc(OC)cc4)c3)[nH]c2n(CCC)c1=O

Source: ChEMBL document CHEMBL1148648, “Novel 1,3-disubstituted 8-(1-benzyl-1H-pyrazol-4-yl) xanthines: high affinity and selective A2B adenosine receptor antagonists” (J Med Chem, 2006)
